Experimental data published in patent US20250042884A1, “3-ARYLOXYL-3-FIVE-MEMBERED HETEROARYL PROPYLAMINE COMPOUND AND USE THEREOF” (Shanghai Leado Pharmatech Co. Ltd., priority 2018, published 2025).

Assays:
HepG-2 cells = assay: Cytotoxicity test (CCK-8), hepatotoxicity; type: cell-based; details: HepG2 cell, 72 h
Procedure: (§1) In this example, hepatotoxicity and neurotoxicity of compound I-1 and S-duloxetine were detected.
(§2) HepG-2 and SH-SY5Y cells were placed in 10 cm dish and cultured at 37° C., 5% CO2 in a cell incubator. Trypsin was used to digest and resuspend cells and cells were counted. The cells were transferred to 96-well plate with 8000 cells in a well (100 μl/well), cultured at 37° C., 5% CO2 in a cell incubator for 24 hrs. A serial of gradient concentration dilutions of compound I-1 (prepared in example 2 of the present invention) with 2-fold dilution were prepared, and the system was 100 μL/well. The supernatant of cell culture system in the 96-well plate was removed on the first day, and fresh-prepared drug concentration system was add into culture plate wells (duplicate wells were set). The cells were cultured at 37° C., 5% CO2 in a cell incubator for 72 h. […] Microplate reader was used to measure the absorbance at 450 nm. Data was processed to calculate cytotoxicity, and IC50 was calculated by GraphPad Prism. […]
(§3) A (Dosing): the absorbance of wells containing cells, CCK-8 solution and drug solution.
(§4) A (control): the absorbance of wells containing medium and CCK-8 solution and without cells.
(§5) A (0 Dosing): the absorbance of wells containing cells and CCK-8 solution but without drug solution […]

Sprague-Dawley rats = assay: Rat hot plate pain model (acute pain); type: in vivo; details: 30 mg/kg intraperitoneal, hydrochloride salt
Procedure: Sprague-Dawley male, mature and unmated rats were placed at hot and cold plate (product model: PE34, US IITC) with constant 53±0.1° C. Mice with painful response such as licking claw, shaking claw or slightly jumping within 10-30 s were selected, and mice which evaded and jumped were abandoned. […] The test compound was freshly prepared on the day of administration. 0.9% NaCl physiological saline solution was prepared as solvent for later use. Appropriate amount of test compound was added into required volume of physiological saline and fully suspended, and the concentration of prepared drug was 1 mg/ml. […] After administration, the latency of heat pain was measured at 0.5 h, 1 h and 2 h after administration. In order to prevent animals from being scalded on the hot plate, the maximum incubation time was set to 30 s. Maximum possible effect (MPE) % was used to evaluate analgesic effect of each compound, i.e., MPE %=[(Post drug latency−baseline latency)/(30−baseline latency)]×100. MPE % at different time points was recorded.

ICR mice = assay: Mice acetic acid writhing pain model (visceral and inflammatory pain); type: in vivo; details: 1 h before acetic acid, saline group 49 times
Procedure: Male ICR mice, 22-25 g, were fasted but allowed to drink water freely for 2 h before administration. All ICR mice were weighed and grouped randomly, each group had >10 animals. […] The drug was administrated by gavage based on the weight of mice. 1.5% acetic acid solution (0.1 ml/10 g) was injected intraperitoneally 1 h after administration, and the number of times of visceral pain in each group was observed within 30 min. When concave abdomen, stretched trunk and hind claw, and high buttocks appeared, one number point was recorded. Finally, the number of appearance of the above phenomenon was counted within 30 minutes.

SH-SY5Y cells = assay: Cytotoxicity test (CCK-8), neurotoxicity; type: cell-based; details: 72 h
Procedure: as §1, §2, §3, §4, §5

SD rats = assay: Rat SNL model, mechanical allodynia test (nerve pain); type: in vivo; details: 1 h after administration, 10 mg/kg oral, hydrochloride salt; control group 3.967 ± 0.775
Procedure: Male SPF grade SD rats, weighed 150 g-180 g, were selected. Aseptic operation during surgery was performed. The animals were anesthetized with sodium pentobarbital (50 mg/kg, intraperitoneal injection). The surgical area of animal waist was shaved and the skin was disinfected three times with iodophor and 70% ethanol. After the skin was dried, the operation was started. Surgical knife was used to make a longitudinal incision at the back of the sacrum of the animal waist to expose the left paraspinal muscles, and stretcher was used to separate muscle tissue to expose the spine. The left spinal nerves L5 and L6 were separated and ligated with a 6-0 silk thread, and the wound was sutured. After the operation, the animals were placed on electrothermal pad, and 5 mL of saline was injected subcutaneously to prevent dehydration. After the animals were fully awakened and could move around freely, the animals were put back in the cage.
After the operation, the animals were adapted in the experimental environment for 15min/day for 3 days.
The animals were weighed to calculate the dose. […] After administration, mechanical allodynia test was performed. The rat was individually placed in a plexiglass box with a grid on the bottom of the box to ensure that the rat claw could be tested. The rats were allowed to adapt the environment for 15 min before test. After the adaptation was completed, the test fiber was used to test the center of the left hind claw of the rat. The test fiber comprises 8 test strengths: 3.61 (0.4 g), 3.84 (0.6 g), 4.08 (1 g), 4.31 (2 g), 4.56 (4 g), 4.74 (6 g), 4.93 (8 g), and 5.18 (15 g). […] During the test, rapid withdrawal of animal claw was recorded as pain response. When the test fiber was removed from animal skin, the withdrawal of animal claw was also recorded as pain response. If animal moved, the pain response was not recorded, and the test was repeated. […]
Mechanical allodynia was expressed as withdrawal threshold (PWT) in rat behavioral test, which was calculated with the following formula: […]

C57BL/6 mice = assay: Mice formalin pain model (acute and inflammatory pain); type: in vivo; details: for Licking claw time (s) in phase II (10-60 min): hydrochloride salt, blank vehicle 349.55 ± 43.09
Excerpt: 150 C57BL/6 mice (male, 9-week aged) were randomly divided into 15 groups, (each group had 10 mice) for the analgesic activity test of 3 compounds in the mice formalin pain model respectively: the compound I-1 group (compound I-1 prepared in Example 2 whose hydrochloride salt was used in the experiment), the S-duloxetine group (its hydrochloride salt was used in the experiment) and the compound C1 group (the compound C1 prepared in Comparative Example 1, whose hydrochloride salt was used in the experiment). Before the start of experiments, the mice were allowed to adapt to the experimental environment for 72 h with free feeding and drinking water. The test drugs were administrated by intraperitoneal injection at a dosage as follows:
Compound I-1 group: blank vehicle (blank saline control), 0.1 mg/kg, 0.5 mg/kg, 1 mg/kg, 5 mg/kg and 10 mg/kg;
S-duloxetine group: blank vehicle (blank saline control), 1 mg/kg, 5 mg/kg, 10 mg/kg and 20 mg/kg;
Compound C1 group: blank vehicle (blank saline control), 0.1 mg/kg, 0.5 mg/kg, 1 mg/kg, 5 mg/kg and 10 mg/kg.
After administration, the mice were placed in a transparent, ventilated plexiglass cylinder for 1 h, and then 20 μl of 4% formalin solution was injected into the left hind plantar of mice of each group by microinjector, claw pain response in mice were real-time recorded by a mini-camera. The time length of licking left claw were used as an indicator of pain response, licking time in 0-10 min (phase I) and 10-60 min (phase II) were observed and recorded, and the statistical analysis was conducted. The half effective dose (ED50) of 3 compounds were calculated: ED50 referred to the dose of the drug which decreased licking time by half as compared with the blank control group. The smaller the ED50 value was, the lower the effective analgesic dose of the compound was and the better the analgesic effect was.

**Q.** `CNCC[C@H](Oc1cccc2ccccc12)c1cccs1` [S-duloxetine] was tested. Which IC50 (HepG-2 cells) did it give?
**A.** The IC50 was 33.3 µM.

**Q.** What about the MPE % (Sprague-Dawley rats; 0.5 h after administration) of the same compound?
**A.** The MPE % was 5.75 ± 5.74%.

**Q.** And the MPE % (Sprague-Dawley rats; 1 h after administration)?
**A.** The MPE % was 7.44 ± 5.12%.

**Q.** And the MPE % (Sprague-Dawley rats; 2 h after administration)?
**A.** The MPE % was 13.53 ± 4.99%.

**Q.** And the “number of appearance of writhing reactions (visceral pain) within 30 min” value (ICR mice; 10 mg/kg by gavage)?
**A.** Its value is 27 times.

**Q.** What about the “number of appearance of writhing reactions (visceral pain) within 30 min” value (ICR mice; 20 mg/kg by gavage) of the same compound?
**A.** The value was 21 times.

**Q.** What about the IC50 (SH-SY5Y cells) of the same compound?
**A.** Its IC50 is 28.6 µM.

**Q.** What about the “PWT(g), claw withdrawal threshold” value (SD rats) of the same compound?
**A.** The value was 6.519 ± 2.226 g.

**Q.** And the “Licking claw time (s) in phase II (10-60 min)” value (“Licking claw time (s)” below) (C57BL/6 mice; 1 mg/kg intraperitoneal)?
**A.** Its value is 259.97 ± 64.44 s.

**Q.** And the “Licking claw time (s)” value (C57BL/6 mice; 5 mg/kg intraperitoneal)?
**A.** Its value is 230.49 ± 41.31 s.

**Q.** And the “Licking claw time (s)” value (C57BL/6 mice; 10 mg/kg intraperitoneal)?
**A.** The value was 162.83 ± 36.27 s.

**Q.** What about the “Licking claw time (s)” value (C57BL/6 mice; 20 mg/kg intraperitoneal) of the same compound?
**A.** Its value is 72.27 ± 17.29 s.

**Q.** What about the “ED50 in phase II pain” value (C57BL/6 mice; intraperitoneal, dose that decreases licking time by half vs blank control) of the same compound?
**A.** The value was 8.00 mg/kg.
